Test system: 817829-284-R-J1-PDC complex spheroids, viability
Experiment: Anticancer human tumor 817829-284-R-J1-PDC patient-derived colon adenocarcinoma cell line growth inhibition [GQUAD]
Conditions: for IC50: curve of first compound; for viability, T/C: stronger effect = lower value; active means viability on the fitted dose curve at most 10% of control; inactive means the rest
Method in brief: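 Viability of tumor cells grown as complex spheroids with endothelial and stromal cells, exposed to drug combinations. Top concentration at or near clinical Cmax (else 10 microM), diluted in half-log increments.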

[1] = second compound 0.0316 µM, first compound 0.0316 µM
[2] = second compound 0.0316 µM, first compound 0.1 µM
[3] = second compound 0.0316 µM, first compound 0.316 µM
[4] = second compound 0.0316 µM, first compound 1 µM
[5] = second compound 0.0316 µM, first compound 3.16 µM
[6] = second compound 0.0316 µM, first compound 10 µM
[7] = second compound 0.1 µM, first compound 0.0316 µM
[8] = second compound 0.1 µM, first compound 0.1 µM
[9] = second compound 0.1 µM, first compound 0.316 µM
[10] = second compound 0.1 µM, first compound 1 µM
[11] = second compound 0.1 µM, first compound 3.16 µM
[12] = second compound 0.1 µM, first compound 10 µM
[13] = second compound 0.316 µM, first compound 0.0316 µM
[14] = second compound 0.316 µM, first compound 0.1 µM
[15] = second compound 0.316 µM, first compound 0.316 µM
[16] = second compound 0.316 µM, first compound 1 µM
[17] = second compound 0.316 µM, first compound 3.16 µM
[18] = second compound 0.316 µM, first compound 10 µM
[19] = second compound 1 µM, first compound 0.0316 µM
[20] = second compound 1 µM, first compound 0.1 µM
[21] = second compound 1 µM, first compound 0.316 µM
[22] = second compound 1 µM, first compound 1 µM
[23] = second compound 1 µM, first compound 3.16 µM
[24] = second compound 1 µM, first compound 10 µM
[25] = second compound 3.16 µM, first compound 0.0316 µM
[26] = second compound 3.16 µM, first compound 0.1 µM
[27] = second compound 3.16 µM, first compound 0.316 µM
[28] = second compound 3.16 µM, first compound 1 µM
[29] = second compound 3.16 µM, first compound 3.16 µM
[30] = second compound 3.16 µM, first compound 10 µM
[31] = second compound 10 µM, first compound 0.0316 µM
[32] = second compound 10 µM, first compound 0.1 µM
[33] = second compound 10 µM, first compound 0.316 µM
[34] = second compound 10 µM, first compound 1 µM
[35] = second compound 10 µM, first compound 3.16 µM
[36] = second compound 10 µM, first compound 10 µM
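Further: spheroids exposed to agents for 7 days before readout.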
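Wherever viability, T/C is given: percent viability relative to DMSO vehicle control taken as 100%.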

CC(C)(O)C1CCC(Nc2ccc3ncc(-c4cccc(C(F)(F)F)c4)n3n2)CC1 (stereo unspecified) + Cc1[nH]c2ccc(F)cc2c1-c1nc2c3cccnc3c3ncccc3c2[nH]1
< 0.0316 µM: IC50 (second compound 3.16 µM) | IC50 (second compound 10 µM)
inactive: viability, T/C [1] 109% | viability, T/C [2] 104% | viability, T/C [3] 88.8% | viability, T/C [4] 64% | viability, T/C [5] 32.5% | viability, T/C [6] 57.5% | viability, T/C [7] 94.6% | viability, T/C [8] 110% | viability, T/C [9] 104% | viability, T/C [10] 51.9% | viability, T/C [11] 25.5% | viability, T/C [12] 61.6% | viability, T/C [13] 106% | viability, T/C [14] 111% | viability, T/C [15] 84.5% | viability, T/C [16] 52% | viability, T/C [17] 25.7% | viability, T/C [18] 54.1% | viability, T/C [19] 107% | viability, T/C [20] 109% | viability, T/C [21] 78.9% | viability, T/C [22] 30.9% | viability, T/C [23] 8.2% | viability, T/C [24] 32.7%
2.5 µM: IC50 (second compound 0.0316 µM)
0.955 µM: IC50 (second compound 0.316 µM)
1.31 µM: IC50 (second compound 0.1 µM)
0.62 µM: IC50 (second compound 1 µM)
active: viability, T/C [25] 3.3% | viability, T/C [26] 3.58% | viability, T/C [27] 2.98% | viability, T/C [28] 1.34% | viability, T/C [29] 0.58% | viability, T/C [30] 1.69% | viability, T/C [31] 2.48% | viability, T/C [32] 2.78% | viability, T/C [33] 2.18% | viability, T/C [34] 1.41% | viability, T/C [35] 0.83% | viability, T/C [36] 1.5%

Cc1[nH]c2ccccc2c1CCNCc1ccc(/C=C/C(=O)NO)cc1 + Cc1[nH]c2ccc(F)cc2c1-c1nc2c3cccnc3c3ncccc3c2[nH]1
< 0.000999 µM: IC50 (second compound 10 µM)
active: viability, T/C (second compound 0.0316 µM, first compound 0.0999 µM) 4.1% | viability, T/C [3] 0.13% | viability, T/C (second compound 0.1 µM, first compound 0.0999 µM) 3.87% | viability, T/C [9] 0.11% | viability, T/C (second compound 0.316 µM, first compound 0.0999 µM) 4.91% | viability, T/C [15] 0.1% | viability, T/C (second compound 1 µM, first compound 0.0999 µM) 5.56% | viability, T/C [21] 0.1% | viability, T/C (second compound 3.16 µM, first compound 0.0999 µM) 3.35% | viability, T/C [27] 0.16% | viability, T/C (second compound 10 µM, first compound 0.0999 µM) 2.12% | viability, T/C [33] 0.24%
0.0545 µM: IC50 (second compound 0.0316 µM)
0.0552 µM: IC50 (second compound 0.316 µM)
inactive: viability, T/C (second compound 0.0316 µM, first compound 0.000999 µM) 89.7% | viability, T/C (second compound 0.0316 µM, first compound 0.00316 µM) 102% | viability, T/C (second compound 0.0316 µM, first compound 0.00999 µM) 121% | viability, T/C [1] 91.4% | viability, T/C (second compound 0.1 µM, first compound 0.000999 µM) 110% | viability, T/C (second compound 0.1 µM, first compound 0.00316 µM) 108% | viability, T/C (second compound 0.1 µM, first compound 0.00999 µM) 125% | viability, T/C [7] 89.8% | viability, T/C (second compound 0.316 µM, first compound 0.000999 µM) 99.5% | viability, T/C (second compound 0.316 µM, first compound 0.00316 µM) 119% | viability, T/C (second compound 0.316 µM, first compound 0.00999 µM) 121% | viability, T/C [13] 92.7% | viability, T/C (second compound 1 µM, first compound 0.000999 µM) 101% | viability, T/C (second compound 1 µM, first compound 0.00316 µM) 112% | viability, T/C (second compound 1 µM, first compound 0.00999 µM) 117% | viability, T/C [19] 82% | viability, T/C (second compound 3.16 µM, first compound 0.000999 µM) 71.3% | viability, T/C (second compound 3.16 µM, first compound 0.00316 µM) 99.3% | viability, T/C (second compound 3.16 µM, first compound 0.00999 µM) 65.2% | viability, T/C [25] 38.8% | viability, T/C (second compound 10 µM, first compound 0.000999 µM) 41.8% | viability, T/C (second compound 10 µM, first compound 0.00316 µM) 56.7% | viability, T/C (second compound 10 µM, first compound 0.00999 µM) 40.3% | viability, T/C [31] 28.5%
0.051 µM: IC50 (second compound 1 µM)
0.0202 µM: IC50 (second compound 3.16 µM)
0.0536 µM: IC50 (second compound 0.1 µM)

O=C(NO)c1cnc(N2CCN(S(=O)(=O)c3ccc4ccccc4c3)CC2)nc1 + Cc1[nH]c2ccc(F)cc2c1-c1nc2c3cccnc3c3ncccc3c2[nH]1
0.186 µM: IC50 (second compound 1 µM)
0.195 µM: IC50 (second compound 0.316 µM)
0.166 µM: IC50 (second compound 0.0316 µM)
0.189 µM: IC50 (second compound 0.1 µM)
active: viability, T/C [3] 0.76% | viability, T/C [4] 0.18% | viability, T/C [5] 0.1% | viability, T/C [6] 0.14% | viability, T/C [9] 1.55% | viability, T/C [10] 0.16% | viability, T/C [11] 0.08% | viability, T/C [12] 0.16% | viability, T/C [15] 3.53% | viability, T/C [16] 0.12% | viability, T/C [17] 0.08% | viability, T/C [18] 0.15% | viability, T/C [21] 1.91% | viability, T/C [22] 0.1% | viability, T/C [23] 0.08% | viability, T/C [24] 0.14% | viability, T/C [26] 13.6% | viability, T/C [27] 0.27% | viability, T/C [28] 0.1% | viability, T/C [29] 0.08% | viability, T/C [30] 0.13% | viability, T/C [31] 5.27% | viability, T/C [32] 7.46% | viability, T/C [33] 0.18% | viability, T/C [34] 0.12% | viability, T/C [35] 0.17% | viability, T/C [36] 0.15%
inactive: viability, T/C [1] 97% | viability, T/C [2] 88.9% | viability, T/C [7] 101% | viability, T/C [8] 120% | viability, T/C [13] 101% | viability, T/C [14] 128% | viability, T/C [19] 118% | viability, T/C [20] 106% | viability, T/C [25] 9.69%
< 0.0316 µM: IC50 (second compound 3.16 µM) | IC50 (second compound 10 µM)
